In ChEMBL document CHEMBL1201862, “PubChem BioAssay data set” (2004):
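Values below derive from 48-hour exposures of cells grown in 96-well plates, with endpoints linearly interpolated between the two concentrations bracketing the appropriate inhibition level. At the GI50, growth is halved.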 Activity calls are given as the source filed them. Rule as the data show it: active = GI50 up to about 1.1 µM and inactive = higher.

What was measured:
Assay in all cases: NCI anticancer screen, dose series, 48 h
A549 = tested on: A549
ACHN = tested on: ACHN
EKVX = tested on: EKVX
HCT-116 = tested on: HCT-116
HOP-62 = tested on: HOP-62
K562 = tested on: K562
MOLT-4 = tested on: MOLT-4
OVCAR-4 = tested on: OVCAR-4
OVCAR-8 = tested on: OVCAR-8
RPMI-8226 = tested on: RPMI-8226
SNB-19 = tested on: SNB-19
SR = tested on: SR
TK-10 = tested on: TK-10
UACC-257 = tested on: UACC-257
UACC-62 = tested on: UACC-62

Measured: GI50

N#C/C(=C/c1cccc2ccccc12)C(=O)c1ccccc1
inactive: A549 > 10 µM | ACHN > 10 µM | EKVX > 10 µM | HCT-116 18.5 µM | HOP-62 18.3 µM | K562 > 10 µM | MOLT-4 14.7 µM | OVCAR-4 > 100 µM | OVCAR-8 33 µM | RPMI-8226 22.3 µM | SNB-19 19.9 µM | SR 26.9 µM | TK-10 35.4 µM | UACC-257 > 10 µM | UACC-62 18.3 µM

CN(C=O)/C=C/c1cc(O)ccc1O
inactive: A549 > 78 µM | ACHN 16.1 µM | EKVX 40.6 µM | HCT-116 33 µM | HOP-62 > 43 µM | K562 24.9 µM | MOLT-4 10.8 µM | OVCAR-4 17.6 µM | OVCAR-8 30.3 µM | RPMI-8226 26.1 µM | SNB-19 > 72.8 µM | SR 20.5 µM | TK-10 26.8 µM | UACC-257 30.3 µM | UACC-62 31.3 µM

CC(=O)c1ccc(NC(=O)C(=O)C(C(=O)/C=C/c2ccccc2)C2OC(=O)c3ccccc32)cc1 (configuration not stated)
inactive: A549 > 100 µM | ACHN > 100 µM | EKVX > 100 µM | HCT-116 > 100 µM | HOP-62 > 100 µM | K562 74.5 µM | MOLT-4 77.4 µM | OVCAR-4 > 100 µM | OVCAR-8 > 100 µM | RPMI-8226 54.2 µM | SNB-19 > 100 µM | SR 60.8 µM | TK-10 > 100 µM | UACC-257 > 100 µM | UACC-62 > 100 µM

Cc1ccc(NC(=O)CCc2n[nH]c(=S)o2)cc1
inactive: A549 > 100 µM | ACHN > 100 µM | EKVX > 100 µM | HCT-116 > 100 µM | HOP-62 > 100 µM | K562 44.6 µM | MOLT-4 > 100 µM | OVCAR-4 > 100 µM | OVCAR-8 > 100 µM | SNB-19 > 100 µM | SR > 100 µM | TK-10 > 100 µM | UACC-257 > 100 µM | UACC-62 > 86.3 µM

Cn1nc(-c2ccccc2)c(C(=O)/C=C/c2ccc(Cl)cc2)c(N2CCCC2)c1=O
inactive: A549 4.36 µM | ACHN 1.72 µM | EKVX 11.7 µM | HCT-116 2.56 µM | HOP-62 2.23 µM | K562 2.66 µM | MOLT-4 2.38 µM | OVCAR-8 4.91 µM | RPMI-8226 2.7 µM | SNB-19 10 µM | TK-10 11.6 µM | UACC-62 4.55 µM

CC1=NN(C(=O)c2ccc(Cl)cc2)C(=O)/C1=C/c1c(O)cc(O)c2ccccc12
inactive: A549 > 100 µM | ACHN > 100 µM | EKVX > 100 µM | HCT-116 > 100 µM | HOP-62 > 100 µM | K562 > 100 µM | MOLT-4 > 100 µM | OVCAR-4 > 100 µM | OVCAR-8 > 100 µM | RPMI-8226 > 100 µM | SNB-19 > 100 µM | TK-10 > 100 µM | UACC-257 > 100 µM | UACC-62 > 100 µM

O=C(c1ccccc1)N1C2C3CC(OCc4ccccc4)(OCc4ccccc4)C(O3)C21 (configuration not stated)
inactive: A549 > 100 µM | ACHN > 100 µM | EKVX > 100 µM | HCT-116 > 100 µM | HOP-62 > 100 µM | K562 62.2 µM | MOLT-4 > 100 µM | OVCAR-4 > 100 µM | OVCAR-8 > 100 µM | RPMI-8226 54.2 µM | SNB-19 > 100 µM | TK-10 > 100 µM | UACC-62 > 100 µM

O=C1c2ccccc2C(=O)N1C/C=N/NS(=O)(=O)c1cccc([N+](=O)[O-])c1
inactive: A549 > 100 µM | ACHN > 100 µM | EKVX > 100 µM | HCT-116 > 100 µM | HOP-62 > 100 µM | K562 > 100 µM | MOLT-4 > 100 µM | OVCAR-4 > 100 µM | OVCAR-8 > 100 µM | RPMI-8226 > 100 µM | SNB-19 > 100 µM | SR > 100 µM | TK-10 > 100 µM | UACC-257 > 100 µM | UACC-62 > 100 µM

CC(C)(C)OC(=O)c1cccnc1/C=N/O
inactive: A549 > 100 µM | ACHN 24 µM | EKVX > 100 µM | HCT-116 > 100 µM | HOP-62 > 100 µM | K562 > 100 µM | MOLT-4 68.2 µM | OVCAR-4 > 100 µM | OVCAR-8 > 100 µM | SNB-19 > 100 µM | SR > 100 µM | TK-10 > 100 µM | UACC-257 > 100 µM | UACC-62 > 100 µM
